Results on 30 compounds are retold here after PubChem BioAssay (NCI).

Values joined by “and” are separate entries in the source; they are usually repeats but may differ in a detail not shown here. Equal entries are not always repeated.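 Compound exposure: 48 hours, 5 concentrations, 96-well plates. Abbreviation: GI50, concentration required for 50% inhibition of growth. TGI is the concentration that stops growth completely.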 Where only a bound is given, the exact number is not on record here.

Holding throughout (experiment): inhibition of tumour cell growth, NCI panel, 48 h
For experiment [1], the system named is M14 melanoma.
Experiment [2] has as its system IGROV1 ovarian.
Experiment [3] deals with CAKI-1 renal.
Experiment [4] deals with A549 NSCLC.
Experiment [5] has as its system NCI-H226 lung.
The subject of experiment [6] is TK-10 renal.
Experiment [7] relates to LOX IMVI melanoma.
The subject of experiment [8] is RPMI-8226 leukemia.
Experiment [9] has as its system SF-268 CNS.
In experiment [10] the test system is EKVX NSCLC.

As for `Cc1ccc(S(=O)(=O)N/N=C2\C3CC4CC(C3)C2C4)cc1` (configuration not stated), the TGI in experiment [1], in experiment [2], in experiment [3], in experiment [4], in [5] and in [6] was over 100 µM throughout. Moreover, the TGI in experiment [7] and in [8] was over 100 µM throughout.
`O=C1/C(=C\c2cccc(Oc3ccccc3)c2)SC(c2ccccc2)N1c1cccc([N+](=O)[O-])c1` (configuration not stated): the TGI in experiment [1], in [3], in experiment [4], in experiment [9], in [5] and in experiment [10] was over 100 µM in each case. Also, the TGI in [6], in [7] and in [8] was over 100 µM throughout.
As for `O=S1(=O)OCCOS(=O)(=O)C1Cc1nc2ccccc2[nH]1`, the TGI in [1] is over 100 µM; in experiment [3], 95.4 µM; in [4], over 100 µM; in experiment [10], over 100 µM; in experiment [6], over 100 µM; in [7] it was 38.1 µM. In addition, in experiment [8], the TGI is over 100 µM.
For the compound `CC(=O)Nc1ccc(C(=O)N2N=C(C)/C(=C/c3ccc(O)cc3)C2=O)cc1`, the TGI in experiment [3], in [4], in experiment [9], in experiment [5], in [10] and in [6] was over 100 µM each time. The TGI in experiment [7] and in [8] was over 100 µM each time.
On to `OC12CCCCCC1(N1CCOCC1)c1ccccc12` (configuration not stated), for which the TGI in experiment [1], in experiment [2], in experiment [3], in experiment [4], in experiment [9] and in [5] was over 100 µM throughout. The TGI in experiment [6], in experiment [7] and in [8] was over 100 µM each time.
With `c1ccc([P+](c2ccccc2)(c2ccccc2)c2ccc([P+](c3ccccc3)(c3ccccc3)c3ccccc3)cc2)cc1`, the TGI in experiment [1], in [2], in experiment [3], in experiment [4], in experiment [9] and in experiment [5] was over 100 µM in each case. The TGI in experiment [6], in experiment [7] and in [8] was over 100 µM throughout.
In the case of `O=c1oc2ccc(Cl)cc2cc1-c1cn2ccsc2n1`, the TGI in [1], in experiment [2], in [3], in [4], in experiment [9] and in experiment [10] was over 100 µM in each case. Besides, the TGI in experiment [6], in [7] and in experiment [8] was over 100 µM in each case.
Regarding `Nc1c(N=Nc2ccc(-c3ccc(N=Nc4c(O)ccc5cc(S(=O)(=O)O)cc(S(=O)(=O)O)c45)cc3)cc2)c(S(=O)(=O)O)cc2cc(S(=O)(=O)O)c(N=Nc3ccccc3)c(O)c12`, the TGI in experiment [2] was over 100 µM; in [4] it was over 100 µM; in [9], over 100 µM; in [5] it was over 95 µM; in [10] it was over 100 µM; in experiment [7], over 100 µM. Also, the TGI in [8] is over 100 µM.
Consider `Nc1ncc(/C=N/O)c(NCC2(CO)CC(CCc3ccccc3)C2)n1` (configuration not stated), for which the TGI in experiment [2] is 31.2 µM; in experiment [3], over 100 µM; in experiment [4], 25.6 µM; in experiment [9], over 100 µM; in [5], 40.1 µM; in experiment [7] it was 22.3 µM. Also, the TGI in experiment [8] amounted to 42.9 µM.
As to `CO[P@]1(=O)O[C@@H](c2ccccc2)[C@H](O)[C@@]1(O)c1ccccc1`, the TGI in experiment [1], in experiment [2], in experiment [3], in [4], in experiment [5] and in [10] was over 100 µM throughout. Besides, the TGI in [6] and in experiment [7] was over 100 µM each time.
On to `[N-]=[N+]=C(C(=O)C(=[N+]=[N-])C(=O)c1ccccc1)C(=O)c1ccccc1`, for which the TGI in experiment [1], in experiment [2], in [4], in [9], in experiment [10] and in experiment [6] was over 100 µM throughout. Moreover, the TGI in experiment [7] and in experiment [8] was over 100 µM in each case.
`Cc1cc(=O)[nH]c(NNC(C#N)c2ccc([N+](=O)[O-])cc2)n1` (configuration not stated): the TGI in [1], in [2], in [3], in [4], in [9] and in experiment [5] was over 100 µM in each case. Besides, the TGI in experiment [6], in experiment [7] and in experiment [8] was over 100 µM throughout.
For `COc1ccc(C2=C(OC(=O)N(C)C)c3cccn3-c3cc(Cl)ccc3S2)cc1`, the TGI in experiment [1], in experiment [2], in experiment [3], in [4], in [9] and in [10] was over 10 µM in each case. The TGI in experiment [6], in experiment [7] and in experiment [8] was over 10 µM throughout.
Consider `CC12CC(c3ccccc3O1)C(C(=O)Nc1cccc(F)c1)C(=O)N2` (configuration not stated), for which the TGI in experiment [1], in [2], in experiment [3], in experiment [4], in experiment [9] and in experiment [10] was over 100 µM in each case. Further, the TGI in experiment [7] and in experiment [8] was over 100 µM in each case.
On to `O=C(/C=C/c1ccco1)c1cccc(C(=O)/C=C/c2ccco2)n1`, for which the TGI is over 96.3 µM in experiment [1]; 53.5 µM in experiment [2]; over 100 µM in experiment [3]; over 100 µM in experiment [4]; over 38.9 µM in [9]; over 100 µM in experiment [5]. The TGI is over 100 µM in experiment [10], over 100 µM in [6] and 5.37 µM in experiment [7].
For `COC(=O)c1c(OC)cc2cc3c(c(O)c2c1C)C(=O)C1(O)C(=O)C=C(OC)C(OC(=O)CC(C)N)=C1C3=O` (configuration not stated), the TGI in experiment [1] is over 100 µM; in experiment [2] it was 69.1 µM; in experiment [3], over 100 µM; in experiment [4], over 100 µM; in experiment [9] it was over 100 µM; in experiment [10], 72.4 µM. Further, the TGI is over 100 µM in experiment [6], over 100 µM in experiment [7] and 39.7 µM in experiment [8].
Turning to `CCOC(=O)C1CCCCc2sc(N)c(C#N)c21` (configuration not stated), the TGI in experiment [1], in experiment [2], in [4], in [5], in experiment [10] and in [6] was over 100 µM each time. This compound yielded a TGI in experiment [8] of over 100 µM.
On to `CC(C)(C)CC(C)(C)c1ccc(OCCOCC[N+](C)(C)Cc2ccccc2)cc1`, for which the TGI in experiment [1] was 6.11 µM; in [3], 38.2 µM and 30.8 µM; in experiment [4], 32.8 µM; in experiment [9] it was 5.92 µM; in experiment [5], 15.7 µM; in experiment [10] it was 16.9 µM. The TGI was found to be 17.3 µM in experiment [6] and 3.83 µM in experiment [8]. Moreover, in experiment [3], the GI50 was 15.1 µM.
As for `O=C(c1ccco1)C1CC(c2ccc3ccccc3c2O)=NN1c1ccc([N+](=O)[O-])cc1[N+](=O)[O-]` (configuration not stated), the TGI in [1], in experiment [2], in experiment [3], in experiment [4], in experiment [9] and in experiment [5] was over 100 µM throughout. This compound showed a TGI in [6] of over 100 µM.
With `CCOC(=O)CCCn1cc(C(=O)OC)nn1`, the TGI in experiment [2], in [3], in experiment [4], in experiment [9], in [5] and in experiment [10] was over 100 µM throughout. For the same compound, the TGI in experiment [6] and in experiment [7] was over 100 µM throughout.
Take `CCOC(=O)/C(C#N)=C/N(CC)/N=C/c1ccccc1`: the TGI in experiment [1], in [2], in [3], in experiment [4], in experiment [9] and in experiment [5] was over 100 µM throughout. Moreover, the TGI in experiment [10], in experiment [6] and in experiment [8] was over 100 µM each time.
Take `O=CNNC(=O)Nc1ccc(Cl)cc1`: the TGI in [1], in experiment [2], in [4], in [9], in experiment [5] and in experiment [10] was over 100 µM each time. Moreover, the TGI in experiment [6] and in experiment [8] was over 100 µM throughout.
As for `COc1ccc(-c2nc(-c3cnccn3)n(C3OC(CO)C(O)C(O)C3O)n2)cc1` (configuration not stated), the TGI in experiment [1], in experiment [2], in experiment [4], in experiment [9], in [10] and in experiment [6] was over 100 µM throughout. The TGI in [7] and in [8] was over 100 µM in each case.
For the compound `CC12CC(C/C1=N/O)C(C)(C)C2` (configuration not stated), the TGI in [1], in experiment [2], in experiment [3], in [4], in experiment [9] and in [5] was over 100 µM each time. Further, the TGI in [10] and in [6] was over 100 µM throughout.
For `Cc1ccc2c(c1)CC1(C2=O)[C@H](c2ccccc2)C2C(=O)c3ccc(C)cc3C2[C@H]1c1ccccc1` (some centres not stated), the TGI in experiment [1], in experiment [2], in experiment [3], in [4], in [9] and in [5] was over 100 µM throughout. For the same compound, the TGI in experiment [10], in experiment [6] and in experiment [7] was over 100 µM throughout.
As to `CCCCCCOc1ccc(C(=N)N(CCCC)CCCC)c2ccccc12`, the GI50 in experiment [2] was 1.34 µM; in [3], 1.39 µM; in experiment [4], 1.76 µM; in experiment [9], 1.62 µM; in experiment [5], 1.53 µM; in experiment [6], 1.57 µM. Further, the TGI in experiment [2] is 2.86 µM; in experiment [3] it was 2.86 µM; in experiment [4] it was 3.31 µM; in [9] it was 3.53 µM; in experiment [5] it was 3.07 µM; in [6] it was 3.14 µM.
For the compound `COC(=O)C(NC(=O)CSc1nnc(COc2ccc(Cl)cc2)n1-c1ccccc1)C(C)C` (configuration not stated), the TGI in experiment [1] was 58 µM; in experiment [2] it was 36.8 µM; in experiment [3], 25.1 µM; in experiment [4], over 100 µM; in experiment [9] it was 44.9 µM; in experiment [5] it was 33 µM. The TGI came to 73.1 µM in experiment [10], 36.2 µM in experiment [6] and 88.1 µM in experiment [7].
`CNc1ccc(S(=O)Nc2ccccc2)cc1` (configuration not stated): the TGI in experiment [2], in [4], in experiment [9], in experiment [5], in experiment [10] and in experiment [6] was over 100 µM in each case. The TGI in [7] and in experiment [8] was over 100 µM in each case.
For the compound `C=CCOC(=O)CCCCCCCCCCCCCCCOC(=O)C1=C(CCC[C@@H](C)O[Si](C)(C)C(C)(C)C)NC(=O)N2[C@H](CC3(CC/C=C\[C@H](CC)O[Si](C(C)C)(C(C)C)C(C)C)OCCO3)CC[C@H]12`, the TGI in experiment [1], in [3], in [4], in experiment [9], in experiment [5] and in experiment [10] was over 100 µM in each case. The TGI in [6] and in experiment [8] was over 100 µM in each case.
As for `C/C(=C\Cc1cc(O)ccc1O)CCc1c(C)cc(O)c(C=O)c1C`, the TGI in experiment [1] is 63.1 µM; in experiment [2] it was 50.5 µM; in experiment [3], 63.5 µM; in experiment [4], over 100 µM; in [9], 46 µM; in [5] it was 78.5 µM. Besides, the TGI in experiment [10], in experiment [6] and in experiment [8] was over 100 µM each time.
